Experimental data published in patent US20230117205A1, “B7-H4 ANTIBODY-DRUG CONJUGATES FOR THE TREATMENT OF CANCER” (SEAGEN INC., priority 2021, published 2023).

Assays:
[1] = test system: MDA-MB-468 xenograft model; assay: MDA-MB-468 xenograft dose range, Study MDAMB468-9; type: in vivo, NSG mice; conditions: three weekly doses
Method: Tumor volume was measured twice weekly until study day 85.
Female NSG mice were implanted with 1×10^6MDA-MB-468 cells in 25% Matrigel H C (Corning #354248) subcutaneously. Once tumor volumes reached 100 mm^3, mice were randomized into treatment groups of 5 mice each and dosed with 0.3, 1, or 3 mg/kg every seven days for three total doses (q7dx3). Twenty-four hours prior to receiving each ADC dose, each animal was treated with 10 mg/kg hIVIG (Grifolds). Tumor volumes were measured twice per week, animals were euthanized when tumor volume reached 700-1000 mm^3. Stock concentrations of ADC were diluted to desired concentration (with 0.01% Tween20 in PBS) and injected i.p. into each treatment group.

HCC1569 xenograft model = assay: HCC1569 xenograft, Study HCC1569-2; type: in vivo, NSG mice; conditions: 3 mg/kg, three weekly doses, i.p.
Method: Tumor volume was measured once or twice weekly until study day 71.
Female NSG mice were implanted with 1×10^6HCC1569 tumor cells in 25% Matrigel H C (Corning #354248) subcutaneously. Once tumor volumes reached 100 mm^3, mice were randomized into treatment groups of 5 mice each and dosed with 3 mg/kg of ADC every seven days for three total doses (q7dx3). Each mouse was treated with 10 mg/kg hIVIG (Grifolds) twenty-four hours prior to receiving each ADC dose. Tumor volumes were measured 1-3 times per week, and animals were euthanized when tumor volume reached 700-1000 mm^3. Stock concentrations of ADC were diluted to a desired concentration (with 0.01% Tween20 in PBS) and injected i.p. into each treatment group.

OVCAR3 xenograft model = assay: OVCAR3 xenograft, Study OVCAR3-e314; type: in vivo, SCID mice; conditions: 3 mg/kg, three weekly doses, i.v.
Method: Tumor volume was measured twice weekly until study day 60.
Female SCID mice were implanted with OVCAR3 tumor fragments (˜1 mm^3) subcutaneously at Charles River Discovery Services (NC). Once tumor volumes reached 150-200 mm^3, mice were dosed with 3 mg/kg of ADC every seven days for three total doses (q7dx3). Tumor volumes were measured twice weekly, and animals were euthanized when tumor volume reached 1000 mm^3. Stock concentrations of ADC were diluted to a desired concentration (with PBS) and injected i.v. into each treatment group.
Tumor growth inhibition (TGI) for each treatment group compared to the untreated group was analyzed on study day 26 as follows: % TGI=[1−(([…])/MTVuntreated)]*100, where MTV is the mean tumor volume. Statistical significance was determined using the Mann-Whitney U test (two-tailed).

[2] = test system: F4/80+ macrophages in MDA-MB-468 xenograft tumors; assay: IHC for F4/80+ macrophages in MDA-MB-468 xenograft tumors; type: in vivo, NSG mice; conditions: single 3 mg/kg dose; 7 days after treatment
Method: Specifically, female NSG mice were implanted with 1×10^6 MDA-MB-468 cells in 25% Matrigel H C subcutaneously. Once tumor volumes reached ˜250-300 mm^3, mice were randomized into treatment groups of 6 mice each and treated with a single 3 mg/kg dose of ADC or mAb, or vehicle control (20 mM Histidine buffer, pH 6.0) injected intraperitoneally (i.p.). Stock concentrations of ADC were diluted to desired concentration with 20 mM Histidine buffer, pH 6.0 or and stock concentration of mAb were diluted to desired concentration with 0.01% Tween20 in PBS. Twenty-four hours prior to dosing, each animal was treated with 10 mg/kg hIVIG. One week following treatment, tumors were harvested, cut in half, and processed for RNAseq (frozen at −80° C.) or formalin-fixed and paraffin-embedded for immunohistochemical (IHC) analysis.
For IHC, FFPE blocks were sectioned at 4 μm and sections were placed on charged slides. Slides were baked for 1 hr at 60° C. […]
Scanned images were analyzed with Halo image analysis software v. 3.1.1076 (Indica Labs), using the area quantification algorithm for CD11c and F4/80 and the cytonuclear algorithm for all other antibodies. […] Percent area of positive tissue, tumor and stroma were determined. […]

SGN-B7H4V: ADC of fully human IgG1 anti-B7-H4 mAb conjugated to monomethyl auristatin E (MMAE) via a protease-cleavable valine-citrulline linker (vedotin)
anti-tumor activity (tumor volume) ([1]; 0.3 mg/kg): minimal anti-tumor activity | anti-tumor activity (tumor volume) ([1]; 1 mg/kg): transient regression of tumor volumes in all mice | anti-tumor activity (tumor volume) ([1]; 3 mg/kg): transient regression of tumor volumes in all mice | anti-tumor activity (tumor volume) (HCC1569 xenograft model): robust tumor growth delay | mean tumor volume compared to the untreated group (OVCAR3 xenograft model): reduction in mean tumor volume | Tumor growth inhibition (TGI) (OVCAR3 xenograft model; study day 26, compared to untreated): 48% | proportion of F4/80+ macrophages in tumor nest and stroma [2]: increase in the proportion of F4/80+ macrophages
